Laboratory results taken from US20050106745A1, “Combination of solubility and membrane permeability measurement methods for profiling of chemical compounds” (AGY Therapeutics, Inc., priority 2003, published 2005).
Values after ≈ are worked out from the molar mass of the structure shown. Counter-ions that a name gives are not always drawn. Like-named read-outs stand apart in the source and are kept apart here.

Experiments:
[1] = rat model, literature (Kelder et al. 1999); cited from earlier work
[2] = physchem; details: for solubility kinetic at 90 min / solubility at 90 min: kinetic from dmso stock
Method: The aqueous and aqueous/methanol solutions were shaken for 90 minutes at room temperature. Using a 96-tip Biomek FX liquid handling system (Beckman Coulter, Fullterton, Calif.), the solutions were transferred to a MultiScreen-Solubility 96-well filterplate (MSSLBPC10, Millipore, Mass.), vacuum filtered, and collected into a clean 96-deepwell plate. […] The sample wells were diluted in the UV/Vis plate with pre-dispensed methanol (20% v/v) for spectroscopic consistency. The remaining portion of the filtrate was sealed and kept in a cool, dark place to be used within 2 hours in the permeability assay. […] The absorption spectra were then corrected for variance in path length by the PathCheck™ algorithm in the SoftMaxPro® software. Next, the optical density (OD) at an appropriate wavelength (λ) was determined for each compound by the analysis algorithm as follows: the UV-Visible spectra were analyzed with a program written in HPBASIC for Windows (TransEra Corporation, Orem, Utah). Briefly, from the spectrum of each well a heuristically matched, scaled and appropriately shifted baseline was subtracted. The locations (λ) and the values of all the peaks [OD(λ)] were then determined. […] In addition, built in user interface tools offered a convenient way to review and manually reassign the λ values to address special cases. When no peaks were found in the spectra, the OD values at 265 nm were used.
For the solubility calculation, a consensus λ was determined for the sample and reference spectra and the corresponding OD values were used in equation (1). The concentrations of the compounds in solution were determined by the following formula: [formula] where OD(λ)sample and OD(λ)Reference are the optical densities at a given wavelength for each compound and [Reference] is the same compound at a known reference concentration.

[3] = BBB-PAMPA effective permeability (Sol-PAMPA); details: for Papp at 16 h: PAMPA; for AGY Ranking (CNS+/CNS−): ranking from BBB-Sol-PAMPA Pe; for Pe × 10^−6 (effective BBB permeability): BBB-PAMPA, pH 7.4 to 7.4, input at solubility limit, 16 hours, n=7
[4] = cited from earlier work
[5] = cited from earlier work; remark: listed apart in the source
[6] = PAMPA
[7] = in vitro; details: PAMPA, pH 7.4

With CN(C)CCC=C1c2ccccc2CCc2ccccc21 [Amitriptyline HCl, amitriptyline] as the compound, how does the “[Brain]/[Blood]” value [1] read?
Its value is 9.55.

And the solubility kinetic at 90 min ([2]; pH 7.4, aqueous buffer)?
Its solubility kinetic at 90 min is 163 µM.

What about the Papp at 16 h ([3]; pH 7.4) of the same compound?
The Papp at 16 h was 12.8 ×10⁻⁶ cm/s.

What about the “AGY Ranking (CNS+/CNS−)” value [3] of the same compound?
The value was “+ (CNS+ compounds have a Pe>2.0×10^−6 cm/sec)”.

Which “AGY Ranking (CNS+/CNS−)” value [3] does the source give for Cn1c(=O)c2c(ncn2C)n(C)c1=O [Caffeine, caffeine] here?
The value was “− (CNS- compounds have a Pe<2.0×10^−6 cm/sec)”.

Which “[Brain]/[Blood]” value [1] does the source give for NC(=O)N1c2ccccc2C=Cc2ccccc21 [Carbamazepine, carbamazepine] here?
Its value is 1.00.

And the solubility kinetic at 90 min ([2]; pH 7.4, aqueous buffer)?
Its solubility kinetic at 90 min is 253 µM (≈ 59.8 µg/mL).

And the Papp at 16 h ([3]; pH 7.4)?
Its Papp at 16 h is 12.9 ×10⁻⁶ cm/s.

And the “AGY Ranking (CNS+/CNS−)” value [3]?
The value was “+ (CNS+ compounds have a Pe>2.0×10^−6 cm/sec)”.

Which results are given for Clc1cccc(Cl)c1N=C1NCCN1 [Clonidine, clonidine]?
[Brain]/[Blood] [1]: 1.29; solubility kinetic at 90 min ([2]; pH 7.4, aqueous buffer): 248 µM (≈ 57.1 µg/mL); Papp at 16 h ([3]; pH 7.4): 2.01 ×10⁻⁶ cm/s; AGY Ranking (CNS+/CNS−) [3]: + (CNS+ compounds have a Pe>2.0×10^−6 cm/sec)

With CNCCCN1c2ccccc2CCc2ccccc21 [Desipramine, desipramine] as the compound, how does the “[Brain]/[Blood]” value [1] read?
Its value is 10.00.

And the “Literature (solubility)” value ([4]; pH 7.4)?
The value was 155 µM.

What about the solubility at 90 min ([2]; pH 3, aqueous buffer) of the same compound?
Its solubility at 90 min is > 350 µM.

And the solubility at 90 min ([2]; pH 5, aqueous buffer)?
The solubility at 90 min was > 350 µM.

What about the solubility at 90 min ([2]; pH 7.4, aqueous buffer) of the same compound?
Its solubility at 90 min is > 350 µM.

What about the solubility kinetic at 90 min ([2]; pH 7.4, aqueous buffer) of the same compound?
The solubility kinetic at 90 min was 274 µM (≈ 73 µg/mL).

And the solubility at 90 min ([2]; pH 9, aqueous buffer)?
The solubility at 90 min was > 350 µM.

What about the Papp at 16 h ([3]; pH 7.4) of the same compound?
The Papp at 16 h was 17.9 ×10⁻⁶ cm/s.

And the “AGY Ranking (CNS+/CNS−)” value [3]?
Its value is “+ (CNS+ compounds have a Pe>2.0×10^−6 cm/sec)”.

For CN1CC[C@@]23CCCC[C@@H]2[C@@H]1Cc1ccc(O)cc13 [Dextrophan, dextrophan], which “pH 7.4 Solubility” value ([2]; pH 7.4, Table 2 test set, n=7) is on record?
The value was 300 μM.

And the “In Vivo CNS +/−” value [5]?
Its value is “+”.

And the “AGY Ranking (CNS+/CNS−)” value [6]?
Its value is “+ (key: CNS+ compounds have a Pe>2.0×10^−6 cm/sec; CNS- compounds have a Pe<2.0×10^−6 cm/sec)”.

What about the “Pe × 10^−6 (effective BBB permeability)” value ([6]; pH 7.4) of the same compound?
Its value is 3.14 ×10^−6 cm/sec.

With O=C(O)Cc1ccccc1Nc1c(Cl)cccc1Cl [Diclofenac, diclofenac] as the compound, how does the “Literature (solubility)” value ([4]; pH 5) read?
Its value is 30 µM.

What about the “Literature (solubility)” value ([4]; pH 7.4) of the same compound?
Its value is >350 µM.

And the “Literature (solubility)” value ([4]; pH 9)?
The value was >350 µM.

What about the solubility at 90 min ([2]; pH 3, aqueous buffer) of the same compound?
The solubility at 90 min was 9 µM (≈ 2.67 µg/mL).

And the solubility at 90 min ([2]; pH 5, aqueous buffer)?
The solubility at 90 min was 18 µM (≈ 5.33 µg/mL).

What about the solubility at 90 min ([2]; pH 7.4, aqueous buffer) of the same compound?
The solubility at 90 min was 274 µM (≈ 81.1 µg/mL).

What about the solubility at 90 min ([2]; pH 9, aqueous buffer) of the same compound?
Its solubility at 90 min is 324 µM (≈ 96 µg/mL).

And the Papp at 16 h [3]?
Its Papp at 16 h is ~10 ×10⁻⁶ cm/s.

With COCCCC/C(=N\OCCN)c1ccc(C(F)(F)F)cc1 [Fluvoxamine, fluvoxamine] as the compound, how does the solubility kinetic at 90 min ([2]; pH 7.4, aqueous buffer) read?
The solubility kinetic at 90 min was 207 µM (≈ 65.9 µg/mL).

Which solubility kinetic at 90 min ([2]; pH 7.4, aqueous buffer) does the source give for Cc1cc(NC(=O)C2=C(O)c3ccccc3S(=O)(=O)N2C)no1 [Isoxicam, isoxicam] here?
The solubility kinetic at 90 min was 322 µM (≈ 108 µg/mL).

And the Papp at 16 h ([3]; pH 7.4)?
The Papp at 16 h was 0.71 ×10⁻⁶ cm/s.

And the “AGY Ranking (CNS+/CNS−)” value [3]?
Its value is “− (CNS- compounds have a Pe<2.0×10^−6 cm/sec)”.

With CCn1cc(C(=O)O)c(=O)c2cc(F)c(N3CCNC(C)C3)c(F)c21 (centres unmarked) [Lomafloxacin, lomafloxacin] as the compound, how does the “pH 7.4 Solubility” value ([2]; 90 min, pH 7.4) read?
The value was 288 μM.

And the “Pe × 10^−6 (effective BBB permeability)” value [3]?
Its value is 0.17 ×10^−6 cm/sec.

What about the “AGY Ranking (CNS+/CNS−)” value [3] of the same compound?
The value was “− (CNS- compounds have a Pe<2.0×10^−6 cm/sec)”.

For CN(C)C(=O)C(CCN1CCC(O)(c2ccc(Cl)cc2)CC1)(c1ccccc1)c1ccccc1 [Loperamide], which solubility kinetic at 90 min ([2]; pH 7.4, aqueous buffer) is on record?
Its solubility kinetic at 90 min is 165 µM (≈ 78.7 µg/mL).

And the “AGY Ranking (CNS+/CNS−)” value [3]?
The value was “− (CNS- compounds have a Pe<2.0×10^−6 cm/sec)”.

What about the Papp [7] of the same compound?
The Papp was 1.07 ×10⁻⁶ cm/s.

With C[C@]12N[C@H](Cc3ccccc31)c1ccccc12 [MK-801, dizocilpine] as the compound, how does the solubility kinetic at 90 min ([2]; pH 7.4, aqueous buffer) read?
The solubility kinetic at 90 min was 212 µM (≈ 46.9 µg/mL).

With CC(C)(C)[N+]([O-])=Cc1ccccc1 [N-tert-Butyl-a-phenylnitrone, N-tert-Butyl-alpha-phenylnitrone] as the compound, how does the “AGY Ranking (CNS+/CNS−)” value [3] read?
The value was “+ (CNS+ compounds have a Pe>2.0×10^−6 cm/sec)”.

What does the source list for Nc1ccc(/N=N/c2ccccc2)c(N)n1 [Phenazopyridine, phenazopyridine]?
Literature (solubility) ([4]; pH 3): >350 µM; Literature (solubility) ([4]; pH 5): 150 µM; Literature (solubility) ([4]; pH 7.4): 58 µM; Literature (solubility) ([4]; pH 9): 49 µM; solubility at 90 min ([2]; pH 3, aqueous buffer): 332 µM (≈ 70.8 µg/mL); solubility at 90 min ([2]; pH 5, aqueous buffer): 89 µM (≈ 19 µg/mL); solubility at 90 min ([2]; pH 7.4, aqueous buffer): 86 µM (≈ 18.3 µg/mL); solubility at 90 min ([2]; pH 9, aqueous buffer): 71 µM (≈ 15.1 µg/mL)

For CN1C(C(=O)Nc2ccccn2)=C(O)c2ccccc2S1(=O)=O [Piroxicam, piroxicam], which “Literature (solubility)” value ([4]; pH 3) is on record?
Its value is 32 µM.

And the “Literature (solubility)” value ([4]; pH 5)?
Its value is 32 µM.

And the “Literature (solubility)” value ([4]; pH 7.4)?
The value was 300 µM.

And the “Literature (solubility)” value ([4]; pH 9)?
Its value is >350 µM.

And the solubility at 90 min ([2]; pH 3, aqueous buffer)?
The solubility at 90 min was 55 µM (≈ 18.2 µg/mL).

What about the solubility at 90 min ([2]; pH 5, aqueous buffer) of the same compound?
Its solubility at 90 min is 66 µM (≈ 21.9 µg/mL).

What about the solubility at 90 min ([2]; pH 7.4, aqueous buffer) of the same compound?
The solubility at 90 min was 257 µM (≈ 85.2 µg/mL).

And the solubility at 90 min ([2]; pH 9, aqueous buffer)?
Its solubility at 90 min is 336 µM (≈ 111 µg/mL).

Which results are given for CC(C)NCC(O)COc1cccc2ccccc12 (centres unmarked) [Propranolol, s-propranolol]?
Literature (solubility) ([4]; pH 7.4): 240 µM; solubility at 90 min ([2]; pH 3, aqueous buffer): > 350 µM; solubility at 90 min ([2]; pH 5, aqueous buffer): > 350 µM; solubility at 90 min ([2]; pH 7.4, aqueous buffer): > 350 µM; solubility at 90 min ([2]; pH 9, aqueous buffer): > 350 µM

With c1ccc2nc(N3CCNCC3)ccc2c1 [Quipazine] as the compound, how does the solubility kinetic at 90 min ([2]; pH 7.4, aqueous buffer) read?
The solubility kinetic at 90 min was 239 µM (≈ 51 µg/mL).

And the Papp at 16 h ([3]; pH 7.4)?
Its Papp at 16 h is 14.9 ×10⁻⁶ cm/s.

What about the “AGY Ranking (CNS+/CNS−)” value [3] of the same compound?
Its value is “+ (CNS+ compounds have a Pe>2.0×10^−6 cm/sec)”.

With CNC(=C[N+](=O)[O-])NCCSCc1ccc(CN(C)C)o1 [Ranitidine HCl, ranitidine] as the compound, how does the “[Brain]/[Blood]” value [1] read?
The value was 0.06.

And the solubility kinetic at 90 min ([2]; pH 7.4, aqueous buffer)?
Its solubility kinetic at 90 min is 174 µM.

And the Papp at 16 h ([3]; pH 7.4)?
Its Papp at 16 h is 0.02 ×10⁻⁶ cm/s.

And the “AGY Ranking (CNS+/CNS−)” value [3]?
The value was “− (CNS- compounds have a Pe<2.0×10^−6 cm/sec)”.

Which results are given for Cl.NC1CCN(c2cccc(Cl)n2)CC1 [SR-57227A]?
pH 7.4 Solubility ([2]; pH 7.4, Table 2 test set, n=7): 294 μM; Pe × 10^−6 (effective BBB permeability) [3]: 6.12 ×10^−6 cm/sec; AGY Ranking (CNS+/CNS−) [3]: + (CNS+ compounds have a Pe>2.0×10^−6 cm/sec)

What does the source list for Cn1c(=O)c2[nH]cnc2n(C)c1=O [Theophylline, theophylline]?
Literature (solubility) ([4]; pH 7.4): >350 µM; solubility at 90 min ([2]; pH 3, aqueous buffer): 330 µM (≈ 59.5 µg/mL); solubility at 90 min ([2]; pH 5, aqueous buffer): 337 µM (≈ 60.7 µg/mL); solubility at 90 min ([2]; pH 7.4, aqueous buffer): 290 µM (≈ 52.2 µg/mL); solubility at 90 min ([2]; pH 9, aqueous buffer): > 350 µM

Which results are given for c1cc(CN2CCCCC2)cc(OCCCNc2nc3ccccc3s2)c1 [Zolantidine]?
[Brain]/[Blood] [1]: 1.38; solubility kinetic at 90 min ([2]; pH 7.4, aqueous buffer): 108 µM (≈ 41.2 µg/mL); Papp at 16 h ([3]; pH 7.4): 12.5 ×10⁻⁶ cm/s; AGY Ranking (CNS+/CNS−) [3]: + (CNS+ compounds have a Pe>2.0×10^−6 cm/sec)
